In the supplement of paper PMC10307832 one finds relative viability data, which are given here for 6 cell lines.

Test in all cases: relative viability (nuclei count vs DMSO), 5 days (fraction); higher = more cells survive
Compound in experiment [1]: CC1=CC=C(C=C1)C(=O)CN2C3=C(CCCC3)SC2=N [Pifithrin_alpha] + CS(=O)(=O)N1CCN(Cc2cc3nc(-c4cccc5[nH]ncc45)nc(N4CCOCC4)c3s2)CC1 [Pictilisib] (partner 1 µM)
A digest of the protocol: (§1)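 Relative viability is defined as nuclei in treated wells over nuclei in vehicle wells. Duplicate plates were run and medians reported. Lung cancer cell lines in 1536-well plates were dosed by pin tool one day after seeding, with one drug or with a fixed anchor-drug dose plus five library-drug doses (not always all listed) in √10 steps, and nuclei were counted after 5 days.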

Compound in the experiment “Axitinib + Olaparib”: CNC(=O)c1ccccc1Sc1ccc2c(/C=C/c3ccccn3)n[nH]c2c1 [Axitinib] + O=C(c1cc(Cc2n[nH]c(=O)c3ccccc23)ccc1F)N1CCN(C(=O)C2CC2)CC1 [Olaparib] (partner 8 µM)
A digest of the protocol: as §1

Compound in the experiment “Bemcentinib + Crizotinib”: Nc1nc(Nc2ccc3c(c2)CC[C@@H](N2CCCC2)CC3)nn1-c1cc2c(nn1)-c1ccccc1CCC2 [Bemcentinib] + C[C@@H](Oc1cc(-c2cnn(C3CCNCC3)c2)cnc1N)c1c(Cl)ccc(F)c1Cl [Crizotinib] (partner 1 µM)
In outline:
as §1

Compound in the experiment “Axitinib + Phenformin”: CNC(=O)c1ccccc1Sc1ccc2c(/C=C/c3ccccn3)n[nH]c2c1 [Axitinib] + N=C(N)NC(=N)NCCc1ccccc1 [Phenformin] (partner 250 µM)
In outline: as §1

NCI-H2228: the relative viability stood at 0.516 in experiment [1] (first compound 1 µM); 0.352 in experiment [1] (first compound 3.162 µM); 0.434 in experiment [1] (first compound 10 µM); 0.294 in experiment [1] (first compound 31.62 µM); 0.303 in experiment [1] (first compound 100 µM); 0.636 with Axitinib + Olaparib (first compound 0.005 µM). Also, the relative viability with Axitinib + Olaparib (first compound 0.01581 µM) is 0.706; with Axitinib + Olaparib (first compound 0.05 µM) it was 0.713; with Axitinib + Olaparib (first compound 0.1581 µM) it was 0.466; with Axitinib + Olaparib (first compound 0.5 µM), 0.91; in the experiment with Bemcentinib + Crizotinib (first compound 0.1265 µM), 0.551; with Bemcentinib + Crizotinib (first compound 0.4 µM), 0.599. For the same cell line, the relative viability with Bemcentinib + Crizotinib (first compound 1.265 µM) came out at 0.467; with Bemcentinib + Crizotinib (first compound 4 µM), 0.451; in the experiment with Axitinib + Phenformin (first compound 0.005 µM), 0.324; with Axitinib + Phenformin (first compound 0.01581 µM), 0.326; with Axitinib + Phenformin (first compound 0.05 µM), 0.412; with Axitinib + Phenformin (first compound 0.1581 µM), 0.36. Besides, the relative viability with Axitinib + Phenformin (first compound 0.5 µM) is 0.269.

As for NCI-H2347, the relative viability in experiment [1] (first compound 1 µM) was found to be 0.754; in experiment [1] (first compound 3.162 µM), 0.145; in experiment [1] (first compound 10 µM), 0.753; in experiment [1] (first compound 31.62 µM), 0.408; in experiment [1] (first compound 100 µM), 0.6; with Axitinib + Olaparib (first compound 0.005 µM) it was 0.592. In addition, the relative viability is 0.629 in the experiment with Axitinib + Olaparib (first compound 0.01581 µM); 0.575 with Axitinib + Olaparib (first compound 0.05 µM); 0.65 in the experiment with Axitinib + Olaparib (first compound 0.1581 µM); 0.557 in the experiment with Axitinib + Olaparib (first compound 0.5 µM); 0.783 in the experiment with Bemcentinib + Crizotinib (first compound 0.04 µM); 1.01 with Bemcentinib + Crizotinib (first compound 0.1265 µM). For the same cell line, the relative viability in the experiment with Bemcentinib + Crizotinib (first compound 0.4 µM) stood at 0.612; with Bemcentinib + Crizotinib (first compound 1.265 µM) it was 0.669; with Bemcentinib + Crizotinib (first compound 4 µM) it was 0.627; with Axitinib + Phenformin (first compound 0.005 µM), 0.454; with Axitinib + Phenformin (first compound 0.01581 µM), 0.405; in the experiment with Axitinib + Phenformin (first compound 0.05 µM) it was 0.529. The relative viability in the experiment with Axitinib + Phenformin (first compound 0.1581 µM) stood at 0.393; with Axitinib + Phenformin (first compound 0.5 µM) it was 0.259.

As for NCI-H2405, the relative viability came to 0.39 in experiment [1] (first compound 3.162 µM); 0.427 in experiment [1] (first compound 10 µM); 0.403 in experiment [1] (first compound 31.62 µM); 0.292 in experiment [1] (first compound 100 µM); 0.892 with Axitinib + Olaparib (first compound 0.005 µM); 0.919 with Axitinib + Olaparib (first compound 0.01581 µM). For the same cell line, the relative viability in the experiment with Axitinib + Olaparib (first compound 0.05 µM) came out at 0.94; with Axitinib + Olaparib (first compound 0.1581 µM), 0.827; with Axitinib + Olaparib (first compound 0.5 µM) it was 0.949; in the experiment with Bemcentinib + Crizotinib (first compound 0.04 µM), 0.826; with Bemcentinib + Crizotinib (first compound 0.1265 µM) it was 0.922; in the experiment with Bemcentinib + Crizotinib (first compound 0.4 µM) it was 0.87. Besides, the relative viability amounted to 0.853 with Bemcentinib + Crizotinib (first compound 1.265 µM); 0.914 in the experiment with Bemcentinib + Crizotinib (first compound 4 µM); 0.386 with Axitinib + Phenformin (first compound 0.005 µM); 0.435 with Axitinib + Phenformin (first compound 0.01581 µM); 0.468 with Axitinib + Phenformin (first compound 0.05 µM); 0.399 with Axitinib + Phenformin (first compound 0.1581 µM). Moreover, in the experiment with Axitinib + Phenformin (first compound 0.5 µM), the relative viability came to 0.357.

With NCI-H3122, the relative viability amounted to 0.628 in experiment [1] (first compound 1 µM); 0.596 in experiment [1] (first compound 3.162 µM); 0.577 in experiment [1] (first compound 10 µM); 0.563 in experiment [1] (first compound 31.62 µM); 0.732 in experiment [1] (first compound 100 µM); 0.571 with Axitinib + Olaparib (first compound 0.005 µM). Besides, the relative viability in the experiment with Axitinib + Olaparib (first compound 0.01581 µM) was 0.629; with Axitinib + Olaparib (first compound 0.05 µM), 0.59; in the experiment with Axitinib + Olaparib (first compound 0.1581 µM), 0.598; in the experiment with Axitinib + Olaparib (first compound 0.5 µM), 0.652; with Bemcentinib + Crizotinib (first compound 0.04 µM) it was 0.257; with Bemcentinib + Crizotinib (first compound 0.1265 µM), 0.157. The relative viability in the experiment with Bemcentinib + Crizotinib (first compound 0.4 µM) was 0.262; with Bemcentinib + Crizotinib (first compound 1.265 µM), 0.31; with Bemcentinib + Crizotinib (first compound 4 µM), 0.293; in the experiment with Axitinib + Phenformin (first compound 0.005 µM), 0.347; with Axitinib + Phenformin (first compound 0.01581 µM), 0.369; with Axitinib + Phenformin (first compound 0.05 µM), 0.397. For the same cell line, the relative viability in the experiment with Axitinib + Phenformin (first compound 0.1581 µM) is 0.379; with Axitinib + Phenformin (first compound 0.5 µM) it was 0.415.

As to PC-3 [JPC-3], the relative viability in experiment [1] (first compound 1 µM) worked out at 0.547; in experiment [1] (first compound 3.162 µM), 0.757; in experiment [1] (first compound 10 µM), 0.629; in experiment [1] (first compound 31.62 µM), 0.569; in experiment [1] (first compound 100 µM) it was 0.597; in the experiment with Axitinib + Olaparib (first compound 0.005 µM), 1.16. Moreover, the relative viability with Axitinib + Olaparib (first compound 0.05 µM) worked out at 1.19; with Axitinib + Olaparib (first compound 0.1581 µM), 1.12; in the experiment with Axitinib + Olaparib (first compound 0.5 µM), 1.44; with Bemcentinib + Crizotinib (first compound 0.04 µM) it was 0.959; in the experiment with Bemcentinib + Crizotinib (first compound 0.1265 µM) it was 1.03; with Bemcentinib + Crizotinib (first compound 0.4 µM) it was 1. Further, the relative viability stood at 0.974 in the experiment with Bemcentinib + Crizotinib (first compound 1.265 µM); 1.09 with Bemcentinib + Crizotinib (first compound 4 µM); 0.491 in the experiment with Axitinib + Phenformin (first compound 0.005 µM); 0.445 with Axitinib + Phenformin (first compound 0.01581 µM); 0.493 in the experiment with Axitinib + Phenformin (first compound 0.05 µM); 0.507 with Axitinib + Phenformin (first compound 0.1581 µM). Also, the relative viability with Axitinib + Phenformin (first compound 0.5 µM) was 0.539.

On to PC-14, for which the relative viability is 0.764 in experiment [1] (first compound 1 µM); 0.674 in experiment [1] (first compound 3.162 µM); 0.645 in experiment [1] (first compound 10 µM); 0.495 in experiment [1] (first compound 31.62 µM); 0.563 in experiment [1] (first compound 100 µM); 0.326 with Axitinib + Olaparib (first compound 0.005 µM). Moreover, the relative viability was found to be 0.368 with Axitinib + Olaparib (first compound 0.01581 µM); 0.275 with Axitinib + Olaparib (first compound 0.05 µM); 0.4 with Axitinib + Olaparib (first compound 0.1581 µM); 0.24 in the experiment with Axitinib + Olaparib (first compound 0.5 µM); 0.838 in the experiment with Bemcentinib + Crizotinib (first compound 0.04 µM); 0.937 with Bemcentinib + Crizotinib (first compound 0.1265 µM). The relative viability amounted to 0.879 with Bemcentinib + Crizotinib (first compound 0.4 µM); 0.896 with Bemcentinib + Crizotinib (first compound 1.265 µM); 1.01 in the experiment with Bemcentinib + Crizotinib (first compound 4 µM); 0.645 in the experiment with Axitinib + Phenformin (first compound 0.005 µM); 0.714 with Axitinib + Phenformin (first compound 0.05 µM); 0.559 with Axitinib + Phenformin (first compound 0.1581 µM). Besides, the relative viability in the experiment with Axitinib + Phenformin (first compound 0.5 µM) amounted to 0.797.
